pKi: −log10 of the molar value. Each block holds one compound with its values, some of them ahead of it.
Legend:
[1] = biological target: β-amyloid (AD brain homogenates) (Homo sapiens, UniProt P05067); assay: Competitive binding assay with [3H]PIB in AD brain homogenates
Procedure: Binding was assayed in 12×75 mm borosilicate glass tubes. […] The resulting mixture was incubated at 37° C. for 1 h, and the bound and free radioligands were separated by rapid vacuum filtration through Whatman GF/B glass filter paper using a Brandel M-24R cell harvest and rapidly washed three times at room temperature with PBS. The filters containing the bound radioactivity were transferred to special vials containing 3 ml of universal scintillation fluid. Vials were counted using Beckman LS6500 multi-purpose scintillation counter. Specific binding was estimated as the difference between total and nonspecific binding. Under the assay conditions, the specifically bound fraction was less than 15% of the total radioactivity. The results were subjected to nonlinear regression analysis using software GraphPad Prism by which Kd and Ki values were calculated.
The postmortem brain tissues were obtained from well-defined AD patients. The gray matter was then carefully separated from white matter at autopsy and kept in −70° C. The fresh frozen gray matter was then homogenized by milling it thoroughly in a mortar in the presence of liquid nitrogen. The homogenates were then prepared in phosphate-buffered saline (PBS, pH 7.4) at a concentration of approximately 400 mg tissue/ml, aliquoted into 1-ml portions, and stored
According to the in vitro binding assays, functional groups have moderate effects on the binding affinity. […] In addition, methylation of the amino group increased the binding affinity.

[2] = Partition coefficient determination (n-octanol/PBS); type: physicochemical; conditions: n-octanol / PBS 0.1 M pH 7.4, room temperature, triplicate
Procedure: Partition coefficients were measured by mixing [^125I] 18 (10 μl, RCP>98%, approximately 50,0000 cpm) with sodium phosphate buffer (PBS, 3 g, 0.1 M, pH 7.4) and
n-octanol (3 g, 3.65 ml) in test tubes. The tubes were vortexed for 3 min (1 min 3×) at room temperature followed by centrifugation at 3500 rpm for 5 min. Then 1 ml of buffer and 1 ml of n-octanol were taken out, weighed, and counted. The partition coefficient was determined by calculating the ratio of cpm/g of n-octanol to that of PBS and expressed as logP oct=log [cpm/g (n-octanol)/cpm/g(PBS)]. Another 2 ml from the rest of n-octanol layer was taken out and repartitioned in a tube previously containing 3 g PBS and 1.65 ml of n-octanol until consistent partitions of the coefficient values were obtained. All assays were performed in triplicate.
Based on the conventional octanol-water partition measurement, the lipophilicity of [^125I] 18 was determined in terms of partition coefficients (logP oct). The logP oct of [^125I] 18 was found at 2.70 and the logP oct values of other dibenzothiazole derivatives were then estimated based on coefficients determined by Hansch and Leo (A substituent Constants for Correlation Analysis in Chemistry and Biology (1979) 1st ed.).

[3] = Storage stability of the radioligand; type: physicochemical
Procedure: 20-30% after HPLC purification. [^125I] 18 was obtained with a radiochemical purity over 98% and a specific activity near the theoretical limit (80 TBq/mmol) based on the no-carrier added sodium [^125I] iodide. The radiochemical identity of [^125I] 18 was verified by co-elution with the non-radioactive cold standard 18 on HPLC profiles. [^125I] 18 was stable enough to be kept for up to 8 h at room temperature and for up to 2 months in the refrigerator.

[4] = Brain uptake in normal mice after iv injection; type: in vivo, mice (Swiss-Webster); conditions: for Brain uptake in mice, 2 min. / Brain uptake in mice, 30 min. / Brain uptake in mice, 60 min.: n = 3, iv tail vein, 0.185 MBq; for Brain uptake in mice, 2 min.: 2 min postinjection; for Brain uptake in mice, 30 min.: 30 min postinjection; for Brain uptake in mice, 60 min.: 60 min postinjection
Procedure: The radiolabeled ligand [^125I] 18 eluted from C-18 Sep-Pak™ plus cartridge was dissolved in a mixture consisting of saline (2 ml, 9 mg/ml), ethylene glycol (2 ml), ethanol (0.7 ml), and HCl (0.3 ml, […]). Under anesthesia, 0.1 ml of the above solution containing 0.185 MBq of radioactive tracer was administered to the mice through a tail vein injection (Swiss-Webster, n=3, 2 months old). The mice were then sacrificed by a heart puncture at 2, 30, and 60 min postinjection. The brain was rapidly removed, weighed, and counted. The uptake of brain was expressed as percentage of injection dose per gram.
For potential in vivo imaging studies, we radiolabeled compound […] with ^125I for brain uptake studies. Following a single iv injection of [^125I] 18 ([…], 0.185 MBq), the brain permeability was evaluated in normal mice. The brain radioactivity concentration of [^125I] 18 was determined at 2, 30, and 60 min postinjection. […] The initial brain uptake was 3.71±0.63% ID/g at 2 min postinjection, a level that is considered for potential clinical imaging studies. The brain radioactivity concentration decreased sharply to 0.78±0.14% ID/g at 30 min and 0.43±0.12% ID/g at 60 min, with a 2-to-30 min ratio of 5. […] 18 was just as low as it rapidly clears from the normal mouse brain in the absence of amyloid deposits.

Sequence of β-amyloid (AD brain homogenates) (P05067 672-711 limits assumed): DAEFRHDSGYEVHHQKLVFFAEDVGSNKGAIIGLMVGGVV

pKi [1]: 7.44 to 8.17
Structure (SMILES): Nc1ccc(-c2nc3ccc(-c4nc5ccccc5s4)cc3s2)cc1 [Compound 10]

pKi [1]: 7.44 to 8.17
Structure (SMILES): Nc1ccc(-c2nc3ccc(-c4nc5ccc(Cl)cc5s4)cc3s2)cc1 [Compound 11]

pKi [1]: 7.44 to 8.17
Structure (SMILES): CNc1ccc(-c2nc3ccc(-c4nc5ccccc5s4)cc3s2)cc1 [Compound 14]

pKi [1]: 7.44 to 8.17
Structure (SMILES): CNc1ccc(-c2nc3ccc(-c4nc5ccc(Cl)cc5s4)cc3s2)cc1 [Compound 15]

logP [2]: 2.7
Stability, time it can be kept ([3]; in the refrigerator): up to 2 months
Stability, time it can be kept ([3]; room temperature): up to 8 h
2-to-30 min ratio of brain radioactivity concentration ([4]; iv): 5
Brain uptake in mice, 2 min. [4]: 3.71 ± 0.63 % ID/g
Brain uptake in mice, 2 min. ([4]; listed as [^125I] 18): 3.71±0.63 % ID/g
Brain uptake in mice, 30 min. [4]: 0.78 ± 0.14 % ID/g
Brain uptake in mice, 30 min. ([4]; listed as [^125I] 18): 0.78±0.14 % ID/g
Brain uptake in mice, 60 min. [4]: 0.43 ± 0.12 % ID/g
Brain uptake in mice, 60 min. ([4]; listed as [^125I] 18): 0.43±0.12 % ID/g
Structure (SMILES): Nc1ccc(-c2nc3ccc(-c4nc5ccccc5s4)cc3s2)cc1[125I] [[^125I]18, 4-[2,6′]dibenzothiazolyl-2′-yl-2-^125I-phenylamine]

More lines, now with the values behind:

Structure (SMILES): Nc1ccc(-c2nc3ccc(-c4nc5ccc(F)cc5s4)cc3s2)cc1 [Compound 12]
pKi [1]: 7.44 to 8.17

Structure (SMILES): COc1ccc2nc(-c3ccc4nc(-c5ccc(N)cc5)sc4c3)sc2c1 [Compound 13]
pKi [1]: 7.44 to 8.17

Structure (SMILES): CNc1ccc(-c2nc3ccc(-c4nc5ccc(F)cc5s4)cc3s2)cc1 [Compound 16, [4-(6-fluoro-[2,60]dibenzothiazolyl-20-yl)-phenyl]-methylamine]
pKi [1]: 7.44 to 8.17

Structure (SMILES): CN(C)c1ccc(-c2nc3ccc(-c4nc5ccc(F)cc5s4)cc3s2)cc1 [Compound 17, [4-(6-fluoro-[2,60]dibenzothiazolyl-20-yl)-phenyl]-dimethylamine]
pKi [1]: 7.44 to 8.17

Structure (SMILES): Nc1ccc(-c2nc3ccc(-c4nc5ccccc5s4)cc3s2)cc1I [Compound 18, 4-[2,6′]dibenzothiazolyl-2′-yl-2-iodo-phenylamine]
pKi [1]: 7.44 to 8.17

Reference: patent publication US20090123373A1, “AMYLOID-IMAGING AGENTS” (priority 2007, published 2009)
